Results as given in US10143746B2, “Immunomodulators” (BRISTOL-MYERS SQUIBB COMPANY, priority 2016, dated 2018).
Where a SMILES comes first, the peptide text is derived from it. Bridges are numbered along the chain shown (N, C = ends). [ ]: non-standard residue; d: D form. Bta = N[C@@H](Cc1csc2ccccc12)C(=O)O; Hyp = O=C(O)[C@@H]1C[C@@H](O)CN1; NMeNle = CCCC[C@H](NC)C(=O)O; NMeA = CN[C@@H](C)C(=O)O

Target: PD-1-Ig binding to PD-L1-TVMV-His (PD-L1-His) (Homo sapiens (Human), UniProt Q9NZQ7)
Experiment: PD-1/PD-L1 Homogenous Time-Resolved Fluorescence (HTRF) binding assay (PD-1-Ig/PD-L1-His)
Settings: PD-1-Ig (20 nM)/PD-L1-His (10 nM); numeric values
Description: Methods for Testing the Ability of Macrocyclic Compounds to Compete for the Binding of PD-1 to PD-L1 Using Homogenous Time-Resolved Fluorescence (HTRF) Binding Assays
The ability of the macrocyclic compounds of the present disclosure to bind to PD-L1 was investigated using a PD-1/PD-L1 Homogenous Time-Resolved Fluorescence (HTRF) binding assay.
Homogenous Time-Resolved Fluorescence (HTRF) Assays of Binding of Soluble PD-1 to Soluble PD-L1. Soluble PD-1 and soluble PD-L1 refers to proteins with carboxyl-end truncations that remove the transmembrane-spanning regions and are fused to heterologous sequences, specifically the Fc portion of the human immunoglobulin G sequence (Ig) or the hexahistidine epitope tag (His). All binding studies were performed in an HTRF assay buffer consisting of dPBS supplemented with 0.1% (w/v) bovine serum albumin and 0.05% (v/v) Tween-20. For the PD-1-Ig/PD-L1-His binding assay, inhibitors were pre-incubated with PD-L1-His (10 nM final) for 15 m in 4 μl of assay buffer, followed by addition of PD-1-Ig (20 nM final) in 1 μl of assay buffer and further incubation for 15 m. PD-L1 fusion proteins from either human, cynomologous macaques, mouse, or other species were used. HTRF detection was achieved using europium crypate-labeled anti-Ig monoclonal antibody (1 nM final) and allophycocyanin (APC) labeled anti-His monoclonal antibody (20 nM final). Antibodies were diluted in HTRF detection buffer and 5 μl was dispensed on top of binding reaction. […] Additional binding assays were established between PD-1-Ig/PD-L2-His (20 and 5 nM, respectively), CD80-His/PD-L1-Ig (100 and 10 nM, respectively) and CD80-His/CTLA4-Ig (10 and 5 nM, respectively).
Recombinant Proteins. […] Human PD-L2-His (Sino Biologicals), CD80-His (Sino Biologicals), CTLA4-Ig (RnD Systems) were all obtained through commercial sources.

Sequence of PD-1-Ig binding to PD-L1-TVMV-His (PD-L1-His) (Q9NZQ7 other isoform, or with tags, fused parts or gaps): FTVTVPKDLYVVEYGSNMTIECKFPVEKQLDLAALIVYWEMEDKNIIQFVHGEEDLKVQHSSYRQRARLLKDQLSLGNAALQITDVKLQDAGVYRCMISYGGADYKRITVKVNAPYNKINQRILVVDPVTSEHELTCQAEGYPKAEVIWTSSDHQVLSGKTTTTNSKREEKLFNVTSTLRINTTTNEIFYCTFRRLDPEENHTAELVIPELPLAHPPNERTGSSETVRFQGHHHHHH

IC50 [nM]	Structure (SMILES)
14	CCCC[C@H]1C(=O)N(C)[C@@H](CCCC)C(=O)N[C@H]2CCC(=O)NCCCC[C@H](NC(=O)[C@H](Cc3c[nH]c4ccccc34)NC(=O)[C@@H]3C[C@@H](O)CN3C(=O)[C@H](CCC(N)=O)NC(=O)[C@H](Cc3c[nH]cn3)NC(=O)[C@@H]3CCCN3C(=O)[C@H](CC(N)=O)NC(=O)[C@@H](C)NC(=O)[C@H](Cc3ccc(O)cc3)NC(=O)CSC[C@@H](C(=O)NCC(N)=O)NC2=O)C(=O)N[C@@H](Cc2c[nH]c3ccccc23)C(=O)N1C [Example 5007] ({CH2CO}-Y[dA]NPHQ[Hyp]WKW[NMeNle][NMeNle]ECG-NH2; lactam 9-13; thioether N-14)

Same assay, conditions: PD-1-Ig (20 nM)/PD-L1-His (10 nM); range classes

IC50 [nM]	Structure (SMILES)
3 to 9.9	CCCC[C@H]1C(=O)N(C)[C@@H](CCCC)C(=O)N[C@H]2CCC(=O)NCCCC[C@H](NC(=O)[C@H](Cc3c[nH]c4ccccc34)NC(=O)[C@@H]3CCCN3C(=O)[C@H](CC(C)C)NC(=O)[C@H](Cc3c[nH]cn3)NC(=O)[C@@H]3CCCN3C(=O)[C@H](CC(N)=O)NC(=O)[C@H](C)N(C)C(=O)[C@H](Cc3ccc(O)cc3)NC(=O)CSC[C@@H](C(=O)NCC(N)=O)NC2=O)C(=O)N[C@@H](Cc2csc3ccccc23)C(=O)N1C [Example 5004] ({CH2CO}-Y[NMeA]NPHLPWK[Bta][NMeNle][NMeNle]ECG-NH2; lactam 9-13; thioether N-14)
10 to 99	CCCC[C@H]1C(=O)N(C)[C@@H](CCCC)C(=O)N[C@@H](CCC(N)=O)C(=O)N[C@H](C(=O)NCC(N)=O)CSCC(=O)N[C@@H](Cc2ccc(O)cc2)C(=O)N[C@H](C)C(=O)N[C@H]2CC(=O)NCCCC[C@H](NC(=O)[C@H](Cc3c[nH]cn3)NC(=O)[C@@H]3CCCN3C2=O)C(=O)N2C[C@H](O)C[C@H]2C(=O)N[C@@H](Cc2c[nH]c3ccccc23)C(=O)N[C@@H](CO)C(=O)N[C@@H](Cc2c[nH]c3ccccc23)C(=O)N1C [Example 5006] ({CH2CO}-Y[dA]DPHK[Hyp]WSW[NMeNle][NMeNle]QCG-NH2; lactam 3-6; thioether N-14)
3 to 9.9	CCCC[C@H]1C(=O)N(C)[C@@H](CCCC)C(=O)N[C@H]2CCC(=O)NCCCC[C@H](NC(=O)[C@H](Cc3c[nH]c4ccccc34)NC(=O)[C@@H]3C[C@@H](O)CN3C(=O)[C@H](CC(C)C)NC(=O)[C@H](Cc3c[nH]cn3)NC(=O)[C@@H]3CCCN3C(=O)[C@H](CC(N)=O)NC(=O)[C@@H](C)NC(=O)[C@H](Cc3ccc(O)cc3)NC(=O)CSC[C@@H](C(=O)NCC(N)=O)NC2=O)C(=O)N[C@@H](Cc2c[nH]c3ccccc23)C(=O)N1C [Example 5008] ({CH2CO}-Y[dA]NPHL[Hyp]WKW[NMeNle][NMeNle]ECG-NH2; lactam 9-13; thioether N-14)
10 to 99	CCCC[C@H]1C(=O)N(C)[C@@H](CCCC)C(=O)N[C@H]2CCCC[C@H](NC(=O)[C@H](Cc3c[nH]c4ccccc34)NC(=O)[C@@H]3CCCN3C(=O)[C@H](CC(C)C)NC(=O)[C@H](Cc3cnc[nH]3)NC(=O)[C@@H]3CCCN3C(=O)[C@H](CC(N)=O)NC(=O)[C@H](C)N(C)C(=O)[C@H](Cc3ccc(O)cc3)NC(=O)CSC[C@@H](C(=O)NCC(N)=O)NC2=O)C(=O)N[C@@H](Cc2c[nH]c3ccccc23)C(=O)N1C [Example 7156]
100 to 1000	CCCC[C@H]1C(=O)N(C)[C@@H](CCCC)C(=O)N[C@@H](CC(C)C)C(=O)N[C@H](C(=O)NCC(N)=O)CSCC(=O)N[C@@H](Cc2ccc(O)cc2)C(=O)N(C)[C@@H](C)C(=O)N[C@H]2CCC(=O)NC[C@H](NC(=O)[C@@H]3CCCN3C2=O)C(=O)N[C@@H](CC(C)C)C(=O)N2CCC[C@H]2C(=O)N[C@@H](Cc2c[nH]c3ccccc23)C(=O)N[C@@H](CO)C(=O)N[C@@H](Cc2c[nH]c3ccccc23)C(=O)N1C [Example 10500]
100 to 1000	CCCC[C@H]1C(=O)N(C)[C@@H](CCCC)C(=O)N[C@@H](CC(C)C)C(=O)N[C@H](C(=O)NCC(N)=O)CSCC(=O)N[C@@H](Cc2ccc(O)cc2)C(=O)N(C)[C@@H](C)C(=O)N[C@H]2CCC(=O)NCCCC[C@H](NC(=O)[C@@H]3CCCN3C2=O)C(=O)N[C@@H](CC(C)C)C(=O)N2CCC[C@H]2C(=O)N[C@@H](Cc2c[nH]c3ccccc23)C(=O)N[C@@H](CO)C(=O)N[C@@H](Cc2c[nH]c3ccccc23)C(=O)N1C [Example 10501]
100 to 1000	CCCC[C@H]1C(=O)N(C)[C@@H](CCCC)C(=O)N[C@@H](CC(C)C)C(=O)N[C@H](C(=O)NCC(N)=O)CSCC(=O)N[C@@H](Cc2ccc(O)cc2)C(=O)N(C)[C@@H](C)C(=O)N[C@H]2CCC(=O)NCC[C@H](NC(=O)[C@@H]3CCCN3C2=O)C(=O)N[C@@H](CC(C)C)C(=O)N2CCC[C@H]2C(=O)N[C@@H](Cc2c[nH]c3ccccc23)C(=O)N[C@@H](CO)C(=O)N[C@@H](Cc2c[nH]c3ccccc23)C(=O)N1C [Example 10503]

Structure (SMILES)	IC50 [nM]
CCCC[C@H]1C(=O)N(C)[C@@H](CCCC)C(=O)N[C@H]2CCC(=O)NCCCC[C@H](NC(=O)[C@H](Cc3c[nH]c4ccccc34)NC(=O)[C@@H]3C[C@@H](O)CN3C(=O)[C@@H]3CCCCNC(=O)C[C@H](NC(=O)[C@H](C)N(C)C(=O)[C@H](Cc4ccc(O)cc4)NC(=O)CSC[C@@H](C(=O)NCC(N)=O)NC2=O)C(=O)N2CCC[C@H]2C(=O)N[C@@H](Cc2c[nH]cn2)C(=O)N3)C(=O)N[C@@H](Cc2c[nH]c3ccccc23)C(=O)N1C [Example 5005] ({CH2CO}-Y[NMeA]DPHK[Hyp]WKW[NMeNle][NMeNle]ECG-NH2; lactam 3-6, 9-13; thioether N-14)	10 to 99
